Measurements from US5410018A, “Bombesin-related peptides” (Oregon Regional Primate Research Center, priority 1994, dated 1995).
Non-standard residues stand in square brackets, D forms with d. Residues, ends and D or L forms follow the SMILES beside them. No end group written: not given here. pGlu = O=C1CC[C@@H](C(=O)O)N1

How the values were obtained:
[1] = molecular target: NMB receptor (Rattus norvegicus, UniProt P24053); assay: biochemical
Experimental: Membranes of the NMB receptor used in the binding assay were obtained by homogenizing rat olfactory bulb tissue (Polytron, setting 6, 15 sec) in ice-cold 50 mM Tris-HC1 (Buffer A) and centrifuging twice as 39,000 x g (10 min), with an intermediate resuspension in fresh buffer. The final pellets were resuspended in the 50 mM Tris-HCl, containing 0.1 mg/ml bacitracin, and 0.1% BSA (Buffer B), and held on ice for the receptor binding assay. For the assay, aliquots (0.4 ml) were incubated with 0.05 ml [^125 I] NMB (-2200 Ci/mmol, New England Nuclear) and Buffer B, with and without 0.05 ml of unlabeled competing peptides. The experiment was performed with BIM-26336, […], GRP, and NMB as competing peptides.
After a 30 min incubation (4° C.), the bound [^125 I]NMB was separated from the free by rapid filtration through GF/B filters which had been previously soaked in 0.3% polyethyleneimine. The filters were then washed three times with 5 ml aliquots of ice-cold Buffer A. Specific binding was defined as the total [125I] NMB bound minus that bound in the presence of 1 μM unlabeled NMB.

[2] = molecular target: T1, human GRP receptor (Homo sapiens, UniProt P30550); assay: Calcium uptake functional assay in xenopus oocytes expressing the human GRP receptor (aequorin luminometry); assay type: cell-based; details: xenopus oocytes coinjected with GRP receptor RNA and aequorin
T1 construct: expressed in transfected cells; host or cells: Xenopus oocytes injected with GRP receptor RNA and aequorin
T1 sequence (P30550 whole entry): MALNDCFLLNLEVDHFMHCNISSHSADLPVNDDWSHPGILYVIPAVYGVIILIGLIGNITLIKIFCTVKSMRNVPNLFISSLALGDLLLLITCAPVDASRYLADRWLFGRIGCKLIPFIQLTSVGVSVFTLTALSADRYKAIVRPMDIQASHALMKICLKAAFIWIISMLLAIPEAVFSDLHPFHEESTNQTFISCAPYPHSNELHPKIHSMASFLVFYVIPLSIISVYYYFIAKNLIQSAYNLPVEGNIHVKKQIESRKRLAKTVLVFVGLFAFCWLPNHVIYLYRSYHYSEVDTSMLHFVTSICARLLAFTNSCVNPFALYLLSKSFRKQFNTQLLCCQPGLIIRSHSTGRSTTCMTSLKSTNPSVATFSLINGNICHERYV
Experimental: (§1) The ability of BIM-26336 and BIM-26337 to activate both the GRP and NMB receptors were analyzed using a calcium uptake functional assay.
Xenopus oocytes were coinjected with both GRP receptor RNA and calcium photoprotein aequorin. The ability of SAP bombesins to induce change in intracellular calcium levels within the cells can be measured luminometrically.
(§2) The ability of bombesin, NMB, SAP bombesin-14, and SAP bombesin-10 to agonize the receptor was tested.

[3] = molecular target: GRP receptor (Rattus norvegicus, UniProt P52500); assay: biochemical
Sequence of GRP receptor (P52500 whole entry): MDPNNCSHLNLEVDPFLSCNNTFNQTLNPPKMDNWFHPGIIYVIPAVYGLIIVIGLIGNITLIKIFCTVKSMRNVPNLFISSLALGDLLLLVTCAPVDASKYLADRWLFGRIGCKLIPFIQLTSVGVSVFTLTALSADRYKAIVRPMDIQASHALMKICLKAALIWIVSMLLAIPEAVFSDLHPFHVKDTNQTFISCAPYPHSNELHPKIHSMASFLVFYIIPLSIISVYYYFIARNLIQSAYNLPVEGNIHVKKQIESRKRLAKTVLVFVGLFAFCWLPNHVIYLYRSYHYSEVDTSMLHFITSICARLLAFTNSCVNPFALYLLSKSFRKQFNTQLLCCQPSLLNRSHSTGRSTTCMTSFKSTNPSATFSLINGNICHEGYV
Experimental: Membranes of the GRP receptor used in the binding assay were obtained by homogenizing cultured AR42J cells (Polytron, setting 6, 15 sec) in ice-cold 50 mM Tris-HC1 (Buffer A) and centrifuging twice as 39,000 x g (10 min), with an intermediate resuspension in fresh buffer. The final pellets were resuspended in the 50 mM Tris-HCl, containing 0.1 mg/ml bacitracin, and 0.1% BSA (Buffer B), and held on ice for the receptor binding assay. […] The experiment was performed with BIM-26336, […], GRP, and NMB as competing peptides.

[4] = tested on: Swiss 3T3/1R mouse embryo fibroblast cells; assay: Thymidine uptake assay in Swiss 3T3 cells; assay type: cell-based; details: 24 h
Experimental: Swiss 3T3/1R mouse embryo fibroblast cells were plated in 24 well tissue culture plates at a density of 2×10^4 cells in 1 ml of Dublbecco's modified eagles medium (DMEM) supplemented with 40 mM glutamine (Gln) in 10% fetal bovine serum. Cells were incubated 3 or 4 days at […] in a humidified atmosphere at 95% air/5% CO2 before replacing the growth medium with DMEM/Gln and 250 μg/ml gentamicin. On the following day, 1 μCi thymidine was added to all wells, and activity was addressed by addition of test peptides alone or in the presence on 3 nM bombesin, respectively. After 24 h, the cells were rinsed with icecold isotonic saline and treated with ice-cold 5% trichloroacetic acid for 30 min. Cells were then rinsed with 95% ethanol and incubated with 0.1 N NaOH overnight at room temperature. One ml aliquots of neutralized samples were counted in a Packard Tri-Carb liquid scintillation analyzer. Test sample activity was measured in 2 independent experiments performed in quadruplicate.
This experiment was performed using 5 test samples: (1) bombesin (3 nM); (2) BIM-26336; (3) BIM-26337; (4) bombesin (3 nM) and BIM-26336; and (5) bombesin (3 nM)+BIM-26337. The results of these experiments are depicted on FIG. 6, wherein the x-axis depicts concentration of the respective SAP bombesin and the y-axis depicts disintegration per minute.

[5] = molecular target: T2, human NMB receptor (Homo sapiens, UniProt P28336); assay: Calcium uptake functional assay in xenopus oocytes expressing the human NMB receptor (aequorin luminometry); assay type: cell-based; details: xenopus oocytes coinjected with NMB receptor RNA and aequorin
T2 construct: expressed in transfected cells; host or cells: Xenopus oocytes injected with NMB receptor RNA and aequorin
T2 sequence (P28336 whole entry): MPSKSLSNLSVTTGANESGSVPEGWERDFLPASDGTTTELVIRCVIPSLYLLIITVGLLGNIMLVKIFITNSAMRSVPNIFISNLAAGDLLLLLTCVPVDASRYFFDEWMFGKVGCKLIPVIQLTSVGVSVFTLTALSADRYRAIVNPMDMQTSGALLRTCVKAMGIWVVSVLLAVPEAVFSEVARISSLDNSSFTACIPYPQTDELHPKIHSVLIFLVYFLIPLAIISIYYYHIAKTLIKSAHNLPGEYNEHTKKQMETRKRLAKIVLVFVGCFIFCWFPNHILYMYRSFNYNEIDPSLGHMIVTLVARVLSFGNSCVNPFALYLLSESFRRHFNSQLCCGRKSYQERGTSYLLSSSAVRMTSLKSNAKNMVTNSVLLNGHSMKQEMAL
Experimental: as §1
Xenopus oocytes, a frog egg naturally deprived of any receptors, were coinjected with both NMB receptor RNA and calcium photoprotein aequorin. The ability of SAP bombesins to induce change in intracellular calcium levels within the cells were measured luminometrically. See Spindel, et al., Recent Progress in Hormone Research 48:365 (1993); Corjay, et al., J. Biol. Chem. 266:18771 (1991); and Giladi et al., BioTechniques 10:744 (1991), all of which are hereby incorporated by reference.
as §2

Sequence of NMB receptor (P24053 whole entry): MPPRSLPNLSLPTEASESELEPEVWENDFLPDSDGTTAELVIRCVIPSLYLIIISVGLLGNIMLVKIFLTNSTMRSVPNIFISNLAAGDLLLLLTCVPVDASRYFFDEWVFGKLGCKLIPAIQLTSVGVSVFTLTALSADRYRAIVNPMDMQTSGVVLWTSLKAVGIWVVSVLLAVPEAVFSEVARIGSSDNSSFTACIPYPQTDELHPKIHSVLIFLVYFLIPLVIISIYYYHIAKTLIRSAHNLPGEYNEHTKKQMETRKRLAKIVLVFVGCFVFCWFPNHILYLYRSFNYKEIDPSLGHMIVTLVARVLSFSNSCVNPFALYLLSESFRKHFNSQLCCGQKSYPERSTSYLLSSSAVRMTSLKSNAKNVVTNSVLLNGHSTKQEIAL

Compound | Ki [1] | potency at the GRP receptor (intracellular calcium) [2] | Ki [3] | binding selectivity between GRP and NMB receptors ([3]; comparison of Ki at NMB and GRP receptors) | thymidine uptake, peptide with bombesin ([4]; in the presence of 3 nM bombesin) | thymidine uptake, peptide alone ([4]; test peptide alone) | potency at the NMB receptor (intracellular calcium, relative to NMB) [5]
CSCC[C@H](NC(=O)[C@H](Cc1ccccc1)NC(=O)[C@H](Cc1c[nH]cn1)NC(=O)CNC(=O)[C@H](CCCNC(=N)N)NC(=O)[C@H](C)NC(=O)[C@H](Cc1c[nH]c2ccccc12)NC(=O)[C@H](CCC(N)=O)NC(=O)[C@H](CC(N)=O)NC(=O)CNC(=O)[C@H](CC(C)C)NC(=O)[C@H](CO)NC(=O)[C@H](CCC(N)=O)NC(=O)[C@@H]1CCC(=O)N1)C(N)=O [BIM-26337, H-pGlu-Gln-Ser-Leu-Gly-Asn-Gln-Trp-Ala-Arg-Gly-His-Phe-Met-NH2] ([pGlu]QSLGNQWARGHFM-NH2) | 610 nM | significantly greater potency than SAP bombesin-10 | 6.4 nM | more selective binding of GRP than NMB receptors | substantially enhanced | induce thymidine uptake | approximately two log units less than that of NMB
GNQWARGHFM-NH2 [BIM-26336, Gly-Asn-Gln-Trp-Ala-Arg-Gly-His-Phe-Met-NH2] | 15.1 nM | – | 6.6 nM | – | – | – | –
